The values below come from patent US20070213359A1 (ACADIA Pharmaceuticals Inc., priority 2005, published 2007).

The target of the test is Ghrelin receptor (Homo sapiens, UniProt Q92847). Put plainly: Receptor Selection and Amplification Technology (R-SAT) assay. Format: cell-based. Details: expressed in transfected cells; host or cells: NIH3T3. The conditions noted are these: for IC50: negative logarithm of ligand concentration causing 50% inhibition of constitutive receptor response, transfected NIH3T3 cells, '—' not defined (nd used separately), read-out: RSAT pIC50 (converted); for Emax: read-out: RSAT Eff(%).
Ghrelin receptor, sequence (Q92847 whole entry): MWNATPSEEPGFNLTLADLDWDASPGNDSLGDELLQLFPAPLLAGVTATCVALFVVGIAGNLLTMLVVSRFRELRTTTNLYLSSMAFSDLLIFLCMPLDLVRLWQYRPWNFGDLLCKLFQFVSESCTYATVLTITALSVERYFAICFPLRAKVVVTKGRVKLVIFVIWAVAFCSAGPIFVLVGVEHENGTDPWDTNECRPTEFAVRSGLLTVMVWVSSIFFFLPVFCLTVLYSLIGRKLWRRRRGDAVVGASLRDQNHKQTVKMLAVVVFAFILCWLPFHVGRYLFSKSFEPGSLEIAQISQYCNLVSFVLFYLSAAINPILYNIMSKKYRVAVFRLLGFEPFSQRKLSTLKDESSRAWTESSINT

[1] abbreviates: percent inhibition at saturating ligand, normalized to reference ligand Substance P analog = 100%.

Like-named read-outs stand apart in the source and are kept apart here.

On to `CC(=O)c1cn(CCCN2CCCN(Cc3ccccc3Cl)CC2)c2c(C)cccc12`, for which the IC50 was 1.26 nM. Under setting [1], the Emax turned out to be 111%.

Turning to `CC(=O)c1cn(CCCN2CCC(c3nc(-c4cccnc4)no3)CC2)c2c(Br)cccc12`, the IC50 was 39.8 nM. The Emax under setting [1] was found to be 119%.

With `CCc1cccc2c(C(C)=O)cn(CCCN3CCN(CCOc4ccccc4)CC3)c12`, the IC50 is 39.8 nM. For the same compound, the Emax under setting [1] turned out to be 110%.

In the case of `CC(=O)c1cn(CCCNCCOc2ccccc2)c2c(C)cccc12`, the IC50 was 39.8 nM. Further, under setting [1], the Emax came out at 100%.

In the case of `CC(=O)c1cn(CCCN2CCCN(CCc3ccccc3)CC2)c2c(C#N)cccc12`, the IC50 was 39.8 nM. Besides, under setting [1], the Emax turned out to be 83%.

Turning to `CCc1cccc2c(C(C)=O)cn(CCCN3CCC(c4nc(-c5ccncc5)no4)CC3)c12`, the IC50 is 39.8 nM. The Emax under setting [1] was 121%.

On to `CC(=O)c1cn(CCCN2C3CCC2CC(CCc2ccc(Cl)cc2)C3)c2c(Br)cccc12` (centres unmarked), for which the IC50 was 39.8 nM. The Emax under setting [1] was found to be 106%.

Take `COc1cccc2c(C(C)=O)cn(CC(C)CN3C4CCC3CC(CCc3ccccc3)C4)c12` (centres unmarked): the IC50 was 50.1 nM and the Emax worked out at 120%.

With `COc1cccc2c(C(=O)NCC(C)C)cn(CCCN3CCN(CCOc4ccc(Cl)cc4)CC3)c12`, the IC50 was 63.1 nM. The “RSAT Eff(%)” value under setting [1] is 84%.

In the case of `CC(=O)c1cn(CCCN2CCN(c3ncc(C(F)(F)F)cc3Cl)CC2)c2ncccc12`, the IC50 is 63.1 nM. Besides, the Emax under setting [1] turned out to be 91%.

Consider `CC(=O)c1cn(CCCN2CCN(c3ncc(C(F)(F)F)cc3Cl)CC2)c2c(C#N)cccc12`, for which the IC50 was 79.4 nM. The Emax under setting [1] was found to be 106%.

With `COc1cccc2c(C(=O)NCC(C)C)cn(CCCN3C4CCC3CC(Oc3ccc(F)cc3)C4)c12` (centres unmarked), the IC50 was 79.4 nM. Further, under setting [1], the “RSAT Eff(%)” value came to 147%.

As to `CC(=O)c1cn(CCCN2C3CCC2CC(CCc2ccc(Cl)cc2)C3)c2c(C)cccc12` (centres unmarked), the IC50 was 100 nM and the Emax amounted to 50%.

`CC(=O)c1cn(CCCNCCOc2ccccc2)c2c(Cl)cccc12`: the IC50 was 100 nM. Under setting [1], the Emax worked out at 84%.

As for `CC(=O)c1cn(CCCN2C3CCC2CC(Oc2ccc(F)cc2)C3)c2c(Cl)cccc12` (centres unmarked), the IC50 is 100 nM. For the same compound, the Emax under setting [1] came out at 87%.

As to `CCc1cccc2c(C(C)=O)cn(CCCN3C4CCC3CC(Oc3ccccc3Cl)C4)c12` (centres unmarked), the IC50 is 100 nM. Further, under setting [1], the Emax is 101%.

`O=C(c1cn(CCCN2CCCN(Cc3ccc(F)cc3)CC2)c2ncccc12)C(F)(F)F`: the IC50 was 100 nM. The Emax under setting [1] was 83%.

For `CCCCC(=O)c1cn(CCCN2CCC(Oc3ccc(F)cc3)CC2)c2ccc(OC)cc12`, the IC50 is 100 nM and the Emax amounted to 91%.

For the compound `CCCOC1CCN(CCCn2cc(C(=O)CC(C)C)c3ccccc32)CC1`, the IC50 was 126 nM. The Emax under setting [1] is 81%.

For `CCCCC(=O)c1cn(CCCN2C3CCC2CC(Oc2ccc(Cl)cc2)C3)c2ccc(OC)cc12` (centres unmarked), the IC50 is 126 nM. Moreover, under setting [1], the Emax amounted to 110%.

In the case of `COc1cccc2c(C(C)=O)cn(CCCN3CCC(O)(Cc4ccccc4)CC3)c12`, the IC50 is 126 nM. Also, under setting [1], the Emax is 106%.

For `CCCCC(=O)c1cn(CCCN2CCC(OCCC)CC2)c2ccc(OC)cc12`, the IC50 was 126 nM. Besides, the Emax under setting [1] amounted to 114%.

On to `O=C(c1cn(CCCN2CCN(Cc3ccc(Cl)cc3Cl)CC2)c2ncccc12)C(F)(F)F`, for which the IC50 was 126 nM. Moreover, under setting [1], the Emax was found to be 78%.

Consider `CCCCC(=O)c1cn(CCCN2CCC3c4cc(OC)ccc4NC3C2)c2ccc(OC)cc12` (centres unmarked), for which the IC50 was 126 nM. Under setting [1], the Emax was 91%.

As for `COc1cccc2c(C(=O)NCC(C)C)cn(CCCN3CCC(c4nc(-c5ccncc5)no4)CC3)c12`, the IC50 was 158 nM. Moreover, the “RSAT Eff(%)” value under setting [1] is 93%.

In the case of `CCc1cccc2c(C(C)=O)cn(CCCN3CCN(c4ncc(C(F)(F)F)cc4Cl)CC3)c12`, the IC50 was 158 nM. Besides, under setting [1], the Emax came out at 90%.

Consider `COc1ccc2c(C(C)=O)cn(CCCN3CCC(Oc4ccc(F)cc4)CC3)c2c1`, for which the IC50 is 158 nM. Moreover, the Emax under setting [1] worked out at 70%.

As to `CCCCC(=O)c1cn(CCCN2CCC(CCCC)CC2)c2ccc(OC)cc12`, the IC50 was 158 nM. Also, the Emax under setting [1] turned out to be 104%.

Consider `CCC(=O)c1cn(CCCN2CCC(c3nc4ccccc4s3)CC2)c2ccccc12`, for which the IC50 is 158 nM. Besides, under setting [1], the Emax turned out to be 104%.

Take `COc1cccc2c(C(C)=O)cn(CC(C)CN3CCN(c4ncc(C(F)(F)F)cc4Cl)CC3)c12` (centres unmarked): the IC50 was 158 nM. Besides, the Emax under setting [1] worked out at 95%.

With `CCc1cccc2c(C(C)=O)cn(CCCNC3Cc4ccccc4C3)c12`, the IC50 was 158 nM. Under setting [1], the Emax was determined as 98%.

Take `CC(C)CC(=O)c1cn(CCCN2C3CCC2CC(OC2=CC=C(Cl)CC2)C3)c2ccccc12` (centres unmarked): the IC50 was 158 nM and the Emax turned out to be 137%.

For the compound `CC(=O)c1cn(CCCN2CCN(Cc3ccc(Cl)cc3Cl)CC2)c2c(C)cccc12`, the IC50 was 158 nM. For the same compound, the Emax under setting [1] was 120%.

`CC(=O)c1cn(CCCN2CCC(Oc3ccc(F)cc3)CC2)c2ccc(Br)cc12`: the IC50 was 158 nM. The Emax under setting [1] amounted to 75%.

As to `CC(C)CC(=O)c1cn(CCCN2C3CCC2CC(OCC2CC2)C3)c2ccccc12` (centres unmarked), the IC50 was 158 nM. Moreover, the Emax under setting [1] stood at 129%.

As to `COc1ccc2c(C(C)=O)cn(CCCN3C4CCC3CC(OCC3CC3)C4)c2c1` (centres unmarked), the IC50 was 158 nM. Besides, the Emax under setting [1] is 93%.

Consider `COc1cccc2c(C(C)=O)cn(CCCN3CCN(C(C)c4ccccc4)CC3)c12` (centres unmarked), for which the IC50 is 158 nM. For the same compound, the Emax under setting [1] came out at 114%.

Take `COc1cccc2c(C(C)=O)cn(CC(C)CN3CCN(Cc4ccc(Cl)cc4Cl)CC3)c12` (centres unmarked): the IC50 is 200 nM. In addition, under setting [1], the Emax was 78%.

For `CC(=O)c1cn(CCCN2CCC(c3nc(-c4cccnc4)no3)CC2)c2c(C)cccc12`, the IC50 was 200 nM. Also, under setting [1], the Emax stood at 103%.

On to `CC(=O)c1cn(CC(O)CN2CCC(c3nc4ccccc4s3)CC2)c2ccccc12` (centres unmarked), for which the IC50 is 200 nM. In addition, under setting [1], the Emax worked out at 58%.

`CC(=O)c1cn(CCCN2CCN(CCOc3ccccc3)CC2)c2c(Cl)cccc12`: the IC50 was 200 nM. Also, the Emax under setting [1] is 91%.

On to `CCCCC(=O)c1cn(CCCN2C3CCC2CC(OCC2CC2)C3)c2ccc(OC)cc12` (centres unmarked), for which the IC50 is 200 nM and the Emax is 132%.

Take `CCc1cccc2c(C(C)=O)cn(CCCN3C4CCC3CC(Oc3ccc(F)cc3)C4)c12` (centres unmarked): the IC50 was 200 nM. Further, the Emax under setting [1] is 98%.

On to `CC(=O)c1cn(CC(O)CN2CCC(Oc3ccc(F)cc3)CC2)c2ccccc12` (centres unmarked), for which the IC50 was 200 nM. Also, under setting [1], the Emax was 74%.

`COc1ccc2c(C(C)=O)cn(CCCN3CCC(Oc4ccccc4Cl)CC3)c2c1`: the IC50 was 251 nM. Also, the Emax under setting [1] was 88%.

For `CC(=O)c1cn(CCN2C3CCC2CC(OCC2CC2)C3)c2ccccc12` (centres unmarked), the IC50 is 251 nM. For the same compound, under setting [1], the Emax turned out to be 54%.

Regarding `CC(=O)c1cn(CCCN2CCN(C(C)c3ccccc3)CC2)c2cc(Br)ccc12` (centres unmarked), the IC50 was 251 nM. For the same compound, the Emax under setting [1] was 93%.

As to `CC(=O)c1cn(CCCN2C3CCC2CC(OCC2CC2)C3)c2ccc(Br)cc12` (centres unmarked), the IC50 is 251 nM. For the same compound, the Emax under setting [1] amounted to 102%.

`CCCON1CCN(CCCn2cc(C(=O)C(F)(F)F)c3ccccc32)CC1`: the IC50 was 251 nM. In addition, under setting [1], the Emax was found to be 99%.

As to `CCc1cccc2c(C(C)=O)cn(CCCN3CCN(Cc4ccc(Cl)cc4Cl)CC3)c12`, the IC50 was 251 nM. The Emax under setting [1] was determined as 106%.

In the case of `CC(=O)c1cn(CCCN2CCC(Oc3ccccc3Cl)CC2)c2c(Cl)cccc12`, the IC50 was 251 nM. The Emax under setting [1] was 97%.

As for `CCCCC[C@H]1C[C@H]2CC[C@@H](C1)N2CCCn1cc(C(C)=O)c2cccc(C)c21`, the IC50 is 251 nM. In addition, under setting [1], the Emax stood at 105%.

Turning to `CC(c1ccccc1)N1CCN(CCCn2cc(C(=O)C(F)(F)F)c3ccccc32)CC1` (centres unmarked), the IC50 was 251 nM. Further, the Emax under setting [1] was found to be 92%.

On to `O=C(c1cn(CCCN2C3CCC2CC(Oc2ccc(Cl)cc2)C3)c2ccccc12)C(F)(F)F` (centres unmarked), for which the IC50 is 251 nM. In addition, the Emax under setting [1] stood at 97%.

Take `CCCCC(=O)c1cn(CCCN2CCC(Oc3ccccc3Cl)CC2)c2ccc(OC)cc12`: the IC50 is 251 nM. In addition, under setting [1], the Emax came to 92%.

With `CCCOC1CCN(CCCn2cc(C(C)=O)c3ccc(Br)cc32)CC1`, the IC50 was 251 nM. Besides, the Emax under setting [1] stood at 107%.

On to `CC(=O)c1cn(CCCN2CCC(c3nc(-c4ccncc4)no3)CC2)c2c(Cl)cccc12`, for which the IC50 is 251 nM. Under setting [1], the Emax amounted to 108%.

For the compound `CC(=O)c1cn(CCCN2CCCN(CCc3ccccc3)CC2)c2ncccc12`, the IC50 was 251 nM. For the same compound, the Emax under setting [1] was determined as 84%.

In the case of `CCC(=O)c1cn(CCCN2CCC(c3ccccc3OC)CC2)c2ccccc12`, the IC50 is 316 nM. Further, the Emax under setting [1] turned out to be 59%.

Consider `CC(=O)c1cn(CCCN2CCC3(CC2)CC(=O)c2ccccc2O3)c2c(C)cccc12`, for which the IC50 was 316 nM. Moreover, under setting [1], the Emax is 71%.

As to `COc1cccc2c(C(C)=O)cn(CCCN3CCC4(CC3)C(=O)NCN4c3ccccc3)c12`, the IC50 was 316 nM and the Emax was found to be 38%.

As for `CC(C)CC(=O)c1cn(CCCN2CCC(Oc3ccc(Cl)cc3)CC2)c2ccccc12`, the IC50 was 316 nM. The Emax under setting [1] stood at 112%.

`CCCCC(=O)c1cn(CCCN2CCC(c3ccccc3OC)CC2)c2ccc(OC)cc12`: the IC50 is 316 nM. For the same compound, the Emax under setting [1] worked out at 101%.

As to `CCC(=O)c1cn(CCCN2CCC(Oc3ccccc3Cl)CC2)c2ccccc12`, the IC50 was 316 nM. Further, the Emax under setting [1] came out at 76%.
